Key:
[1] = tested on: green foxtail; experiment: Test Example 5: herbicidal effect by foliage application, plastic box (Table 20, symbol G); type: in vivo, green foxtail (Setaria viridis); details: foliage application, 320 g/ha, evaluated three weeks after application
Summary of the method: (§1)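 Sow seeds spot-wise in sterilized diluvial soil; cover with ~1.5 cm soil. Grow 14 days in greenhouse, 25° C. to 30° C. Spray foliage with emulsion diluted to predetermined amount. Rate effect after 3 weeks.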

[2] = tested on: velvetleaf; experiment: Test Example 5: herbicidal effect by foliage application, plastic box (Table 20, symbol M); type: in vivo, velvetleaf (Abutilon theophrasti); details: foliage application, 320 g/ha, evaluated three weeks after application
Summary of the method: as §1

[3] = tested on: barnyard grass; experiment: Test Example 4: herbicidal effect by soil treatment (Table 19, symbol H); type: in vivo, barnyard grass (Echinochloa crus-galli); details: amount of applied herbicide 320 g/ha
Summary of the method: (§2)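 Soil-surface application: an emulsion agent diluted with water to the predetermined dose is sprayed uniformly over seeds lying under roughly 1.5 cm of sterilized diluvial soil. Boxes stay in a greenhouse at 25° C. to 30° C. Three weeks later, each species is graded on previously defined criteria.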

[4] = tested on: barnyard grass; experiment: Test Example 5: herbicidal effect by foliage application, plastic box (Table 20, symbol H); type: in vivo, barnyard grass (Echinochloa crus-galli); details: foliage application, 320 g/ha, evaluated three weeks after application
Summary of the method: as §1

[5] = tested on: wild oat; experiment: Test Example 5: herbicidal effect by foliage application, plastic box (Table 20, symbol I); type: in vivo, wild oat (Avena fatua); details: foliage application, 320 g/ha, evaluated three weeks after application
Summary of the method: as §1

[6] = tested on: southern crabgrass; experiment: Test Example 5: herbicidal effect by foliage application, plastic box (Table 20, symbol F); type: in vivo, southern crabgrass (Digitaria ciliaris); details: foliage application, 320 g/ha, evaluated three weeks after application
Summary of the method: as §1

[7] = tested on: velvetleaf; experiment: Test Example 4: herbicidal effect by soil treatment (Table 19, symbol M); type: in vivo, velvetleaf (Abutilon theophrasti); details: amount of applied herbicide 320 g/ha
Summary of the method: as §2

[8] = tested on: Japanese bulrush; experiment: Test Example 1: herbicidal activity, application before weed generation under submerged conditions (Table 16, symbol B); type: in vivo, Japanese bulrush (Schoenoplectus juncoides); details: 320 g/ha applied herbicide
Summary of the method: (§3)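 Emulsion formulation, water-diluted to set dose, was put onto the flooded surface (4 cm depth, alluvial soil) the same day weeds were sown and 2.5-leaf rice transplanted. After 3 weeks at 25-30 °C under glass, each species was rated 0 (≤5% kill) to 5 (≥90% kill).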

[9] = tested on: Chinese sprangletop; experiment: Test Example 3: herbicidal effect by foliage application, Wagner pot (Table 18, symbol D); type: in vivo, chinese sprangletop (Leptochloa chinensis); details: amount of applied herbicide 320 g/ha
Summary of the method: (§4)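 Plants were sown in alluvial soil held under 0.1–0.5 cm standing water and grown 14 days in a greenhouse at 25–30 °C. An emulsifiable formulation, water-diluted to the set dose, was then sprayed onto the foliage, and effects were scored three weeks later using previously defined criteria.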

[10] = tested on: late watergrass; experiment: Test Example 1: herbicidal activity, application before weed generation under submerged conditions (Table 16, symbol A); type: in vivo, late watergrass (Echinochloa oryzicola); details: 320 g/ha applied herbicide
Summary of the method: as §3

[11] = tested on: green foxtail; experiment: Test Example 4: herbicidal effect by soil treatment (Table 19, symbol G); type: in vivo, green foxtail (Setaria viridis); details: amount of applied herbicide 320 g/ha
Summary of the method: as §2

[12] = tested on: Italian ryegrass; experiment: Test Example 4: herbicidal effect by soil treatment (Table 19, symbol K); type: in vivo, Italian ryegrass (Lolium multiflorum); details: amount of applied herbicide 320 g/ha
Summary of the method: as §2

[13] = tested on: lambsquarters; experiment: Test Example 4: herbicidal effect by soil treatment (Table 19, symbol O); type: in vivo, lambsquarters (Chenopodium album); details: amount of applied herbicide 320 g/ha
Summary of the method: as §2

[14] = tested on: redroot pigweed; experiment: Test Example 5: herbicidal effect by foliage application, plastic box (Table 20, symbol N); type: in vivo, redroot pigweed (Amaranthus retroflexus); details: foliage application, 320 g/ha, evaluated three weeks after application
Summary of the method: as §1

[15] = tested on: blackgrass; experiment: Test Example 5: herbicidal effect by foliage application, plastic box (Table 20, symbol J); type: in vivo, blackgrass (Alopecurus myosuroides); details: foliage application, 320 g/ha, evaluated three weeks after application
Summary of the method: as §1

[16] = tested on: persian speedwell; experiment: Test Example 4: herbicidal effect by soil treatment (Table 19, symbol R); type: in vivo, Persian speedwell (Veronica persica); details: amount of applied herbicide 320 g/ha
Summary of the method: as §2

[17] = tested on: redroot pigweed; experiment: Test Example 4: herbicidal effect by soil treatment (Table 19, symbol N); type: in vivo, redroot pigweed (Amaranthus retroflexus); details: amount of applied herbicide 320 g/ha
Summary of the method: as §2

[18] = tested on: barnyard grass; experiment: Test Example 3: herbicidal effect by foliage application, Wagner pot (Table 18, symbol H); type: in vivo, barnyard grass (Echinochloa crus-galli); details: amount of applied herbicide 320 g/ha
Summary of the method: as §4

[19] = tested on: persian speedwell; experiment: Test Example 5: herbicidal effect by foliage application, plastic box (Table 20, symbol R); type: in vivo, Persian speedwell (Veronica persica); details: foliage application, 320 g/ha, evaluated three weeks after application
Summary of the method: as §1

[20] = tested on: windgrass; experiment: Test Example 5: herbicidal effect by foliage application, plastic box (Table 20, symbol L); type: in vivo, windgrass (Apera spica-venti); details: foliage application, 320 g/ha, evaluated three weeks after application
Summary of the method: as §1

[21] = tested on: wild oat; experiment: Test Example 4: herbicidal effect by soil treatment (Table 19, symbol I); type: in vivo, wild oat (Avena fatua); details: amount of applied herbicide 320 g/ha
Summary of the method: as §2

[22] = tested on: blackgrass; experiment: Test Example 4: herbicidal effect by soil treatment (Table 19, symbol J); type: in vivo, blackgrass (Alopecurus myosuroides); details: amount of applied herbicide 320 g/ha
Summary of the method: as §2

[23] = tested on: chickweed; experiment: Test Example 4: herbicidal effect by soil treatment (Table 19, symbol P); type: in vivo, common chickweed (Stellaria media); details: amount of applied herbicide 320 g/ha
Summary of the method: as §2

[24] = tested on: lambsquarters; experiment: Test Example 5: herbicidal effect by foliage application, plastic box (Table 20, symbol O); type: in vivo, lambsquarters (Chenopodium album); details: foliage application, 320 g/ha, evaluated three weeks after application
Summary of the method: as §1

[25] = tested on: oval-leafed pondweed; experiment: Test Example 1: herbicidal activity, application before weed generation under submerged conditions (Table 16, symbol C); type: in vivo, oval-leafed pondweed (Monochoria vaginalis); details: 320 g/ha applied herbicide
Summary of the method: as §3

[26] = tested on: Italian ryegrass; experiment: Test Example 5: herbicidal effect by foliage application, plastic box (Table 20, symbol K); type: in vivo, Italian ryegrass (Lolium multiflorum); details: foliage application, 320 g/ha, evaluated three weeks after application
Summary of the method: as §1

[27] = tested on: chickweed; experiment: Test Example 5: herbicidal effect by foliage application, plastic box (Table 20, symbol P); type: in vivo, common chickweed (Stellaria media); details: foliage application, 320 g/ha, evaluated three weeks after application
Summary of the method: as §1

[28] = tested on: rice flat sedge; experiment: Test Example 3: herbicidal effect by foliage application, Wagner pot (Table 18, symbol E); type: in vivo, rice flat sedge (Cyperus iria); details: amount of applied herbicide 320 g/ha
Summary of the method: as §4

[29] = tested on: southern crabgrass; experiment: Test Example 4: herbicidal effect by soil treatment (Table 19, symbol F); type: in vivo, southern crabgrass (Digitaria ciliaris); details: amount of applied herbicide 320 g/ha
Summary of the method: as §2

[30] = tested on: windgrass; experiment: Test Example 4: herbicidal effect by soil treatment (Table 19, symbol L); type: in vivo, windgrass (Apera spica-venti); details: amount of applied herbicide 320 g/ha
Summary of the method: as §2

| SMILES | herbicidal effect on G: green foxtail (criteria 0-5) [1] | herbicidal effect on M: velvetleaf (criteria 0-5) [2] | herbicidal effect on H: barnyard grass [3] | herbicidal effect on H: barnyard grass (criteria 0-5) [4] | herbicidal effect on I: wild oat (criteria 0-5) [5] | herbicidal effect on F: southern crabgrass (criteria 0-5) [6] | herbicidal effect on M: velvetleaf [7] | Herbicidal effect on B: Japanese bulrush (grade 0-5) [8] | herbicidal effect on D: Chinese sprangletop [9] | Herbicidal effect on A: late watergrass (grade 0-5) [10] | herbicidal effect on G: green foxtail [11] | herbicidal effect on K: Italian ryegrass [12] | herbicidal effect on O: lambsquarters [13] | herbicidal effect on N: redroot pigweed (criteria 0-5) [14] | herbicidal effect on J: blackgrass (criteria 0-5) [15] | herbicidal effect on R: persian speedwell [16] | herbicidal effect on N: redroot pigweed [17] | herbicidal effect on H: barnyard grass [18] | herbicidal effect on R: persian speedwell (criteria 0-5) [19] | herbicidal effect on L: windgrass (criteria 0-5) [20] | further results |
| --- | --- | --- | --- | --- | --- | --- | --- | --- | --- | --- | --- | --- | --- | --- | --- | --- | --- | --- | --- | --- | --- |
| CCCC(=O)Oc1c(C)nn(C)c(=O)c1-c1c(-c2cccc(OC(C)(C)C)c2)sc2ccc(F)cc12 [2-224] | 1 (Herbicidal rate of 5% or more and less than 20%) | 3 (Herbicidal rate of 40% or more and less than 70%) | 0 (Herbicidal rate of 5% or less (almost no effect)) | 3 (Herbicidal rate of 40% or more and less than 70%) | 0 (Herbicidal rate of 5% or less (almost no effect)) | 0 (Herbicidal rate of 5% or less (almost no effect)) | 0 (Herbicidal rate of 5% or less (almost no effect)) | 0 (Herbicidal rate of 5% or less (almost no effect)) | 4 (Herbicidal rate of 70% or more and less than 90%) | 5 (Herbicidal rate of 90% or more (almost completely withered)) | 0 (Herbicidal rate of 5% or less (almost no effect)) | 0 (Herbicidal rate of 5% or less (almost no effect)) | 0 (Herbicidal rate of 5% or less (almost no effect)) | 2 (Herbicidal rate of 20% or more and less than 40%) | 0 (Herbicidal rate of 5% or less (almost no effect)) | 4 (Herbicidal rate of 70% or more and less than 90%) | 0 (Herbicidal rate of 5% or less (almost no effect)) | 4 (Herbicidal rate of 70% or more and less than 90%) | 5 (Herbicidal rate of 90% or more (almost completely withered)) | 0 (Herbicidal rate of 5% or less (almost no effect)) | herbicidal effect on I: wild oat [21]: 0 (Herbicidal rate of 5% or less (almost no effect)); herbicidal effect on J: blackgrass [22]: 0 (Herbicidal rate of 5% or less (almost no effect)); herbicidal effect on P: chickweed [23]: 0 (Herbicidal rate of 5% or less (almost no effect)); herbicidal effect on O: lambsquarters (criteria 0-5) [24]: 3 (Herbicidal rate of 40% or more and less than 70%); Herbicidal effect on C: oval-leafed pondweed (grade 0-5) [25]: 0 (Herbicidal rate of 5% or less (almost no effect)); herbicidal effect on K: Italian ryegrass (criteria 0-5) [26]: 0 (Herbicidal rate of 5% or less (almost no effect)); herbicidal effect on P: chickweed (criteria 0-5) [27]: 5 (Herbicidal rate of 90% or more (almost completely withered)); herbicidal effect on E: rice flat sedge [28]: 3 (Herbicidal rate of 40% or more and less than 70%); herbicidal effect on F: southern crabgrass [29]: 0 (Herbicidal rate of 5% or less (almost no effect)); herbicidal effect on L: windgrass [30]: 0 (Herbicidal rate of 5% or less (almost no effect)) |
| CCCC(=O)Oc1c(C)nn(C)c(=O)c1-c1c(-c2cccc(C(F)(F)F)c2)sc2ccc(F)cc12 [2-232] | 0 (Herbicidal rate of 5% or less (almost no effect)) | 5 (Herbicidal rate of 90% or more (almost completely withered)) | 0 (Herbicidal rate of 5% or less (almost no effect)) | 0 (Herbicidal rate of 5% or less (almost no effect)) | 0 (Herbicidal rate of 5% or less (almost no effect)) | 0 (Herbicidal rate of 5% or less (almost no effect)) | 0 (Herbicidal rate of 5% or less (almost no effect)) | 0 (Herbicidal rate of 5% or less (almost no effect)) | 5 (Herbicidal rate of 90% or more (almost completely withered)) | 3 (Herbicidal rate of 40% or more and less than 70%) | 0 (Herbicidal rate of 5% or less (almost no effect)) | 0 (Herbicidal rate of 5% or less (almost no effect)) | 0 (Herbicidal rate of 5% or less (almost no effect)) | 5 (Herbicidal rate of 90% or more (almost completely withered)) | 0 (Herbicidal rate of 5% or less (almost no effect)) | 3 (Herbicidal rate of 40% or more and less than 70%) | 0 (Herbicidal rate of 5% or less (almost no effect)) | 4 (Herbicidal rate of 70% or more and less than 90%) | 5 (Herbicidal rate of 90% or more (almost completely withered)) | 1 (Herbicidal rate of 5% or more and less than 20%) | herbicidal effect on I: wild oat [21]: 0 (Herbicidal rate of 5% or less (almost no effect)); herbicidal effect on J: blackgrass [22]: 0 (Herbicidal rate of 5% or less (almost no effect)); herbicidal effect on P: chickweed [23]: 3 (Herbicidal rate of 40% or more and less than 70%); herbicidal effect on O: lambsquarters (criteria 0-5) [24]: 3 (Herbicidal rate of 40% or more and less than 70%); Herbicidal effect on C: oval-leafed pondweed (grade 0-5) [25]: 0 (Herbicidal rate of 5% or less (almost no effect)); herbicidal effect on K: Italian ryegrass (criteria 0-5) [26]: 0 (Herbicidal rate of 5% or less (almost no effect)); herbicidal effect on P: chickweed (criteria 0-5) [27]: 5 (Herbicidal rate of 90% or more (almost completely withered)); herbicidal effect on E: rice flat sedge [28]: 5 (Herbicidal rate of 90% or more (almost completely withered)); herbicidal effect on F: southern crabgrass [29]: 0 (Herbicidal rate of 5% or less (almost no effect)); herbicidal effect on L: windgrass [30]: 0 (Herbicidal rate of 5% or less (almost no effect)) |

Source: patent US20230085307A1, “PYRIDAZINONE COMPOUND AND HERBICIDE” (NISSAN CHEMICAL CORPORATION, priority 2019, published 2023)
